Experimental findings from patent US20250075248A1, “SYSTEMS, METHODS, AND DEVICES FOR ANTIMICROBIAL SUSCEPTIBILITY TESTING” (Deepull Diagnostics S.L., priority 2022, published 2025) are described below.

One may read the MIC as the lowest concentration found to suppress growth.

What all share (type): cell-based
Assay [1] relates to Escherichia coli susceptible (ATCC25922). Briefly: Broth microdilution method MIC. Particulars: E. coli ATCC25922, read-out: MIC according to broth microdilution method. A general note: In broth dilution the organism is exposed to a series of concentrations in liquid medium.
The test system of assay [2] is Escherichia coli resistant (ATCC700891). Description: Fast (1 hour) high dose detection of resistant bacteria by fluorescence microscopy. The method, then: (§1) To rapidly detect high resistant bacteria to a particular antimicrobial agent, bacteria were grown during a short period of time (1 hour) in the presence of high dose of that antimicrobial agent. Two strains of Escherichia coli, one susceptible (ATCC25922) and the other resistant (ATCC700891) to ampicillin were grown until an exponential phase in culture media. Bacteria cultures were diluted in culture media (Mueller Hinton cation adjusted broth) and were incubated at a final concentration of 2×10^4 CFU/mL during 1 hour at 37° C. in the presence of ampicillin at a final concentration of 128 mg/L, 64 mg/L, and 32 mg/L in a final volume of 10 μL. Three replicates were performed for each antibiotic concentration.
(§2) Samples were visualized at time 0 that represents bacteria before any incubation and after 1 hour incubation. 5 μL of each sample were transferred to a 384-well plate with flat polystyrene film bottom and incubated with fluorescence dyes (SYBR Green and Propidium Iodide) during 10 minutes at room temperature in the dark. The 384-well plate was centrifuged during 1 minute at 3000 g in a swinging-bucket movement and observed in an inverted fluorescence microscope. For each sample a composite image covering the bottom of each well was constructed. Images were analyzed with a custom software to count bacteria, detect filamentous bacteria, counts red bacteria, and record the brightness of bacteria. These images are illustrated in FIG. 26A.

The test system of assay [3] is Escherichia coli susceptible (ATCC25922). Described as above. The method, then: as §1, §2
The subject of assay [4] is Escherichia coli resistant (ATCC700891). Description: Broth microdilution method MIC. The following applies: E. coli ATCC700891, read-out: MIC according to broth microdilution method.
In assay [5] the test system is Staphylococcus aureus resistant (ATCC43300). Description: Microscopy-based AST (MIC) from liquid culture. The method, then:
(§3) The minimal inhibitory concentration was determined for two strains of Gram-positive bacteria Staphylococcus aureus, one susceptible (ATCC29213) and one resistant (ATCC43300) to erythromycin, according to embodiments described herein. […] Bacteria cultures were diluted in culture media (Mueller Hinton cation adjusted broth) and were incubated at a final concentration of 2×10^4 CFU/mL during 5 hours at 37° C. at different concentrations of […] in a final volume of 10 μL. S. aureus strain susceptible to erythromycin was tested at 1, 0.5, 0.25, 0.125, 0.06 and 0.03 mg/L, whereas resistant strain was tested at 4, 2, 1, 0.5, 0.25 and 0.125 mg/L of erythromycin. Three replicates were performed for each antibiotic concentration.
(§4) Samples were analyzed at time 0 of incubation and after 5 hours incubation (with and without antibiotic). Samples were incubated with fluorescence dyes (SYBR Green and Propidium Iodide) during 10 minutes at room temperature in the dark. After dye incubation a sample of 1 μL was diluted with 4 μL of buffer (NaCl 0.9%) and transferred to a 384-well plate with flat polystyrene film bottom. The 384-well plate was centrifuged during 1 minute at 3000 g in a swinging-bucket movement and observed in an inverted fluorescence microscope. For each sample, a composite image covering the bottom of each well was constructed. Images were analyzed with a custom software to count bacteria, detect filamentous bacteria, counts red bacteria, and record the brightness of bacteria.
(§5) Data obtained from images was used to perform a Graph either for S. aureus susceptible and resistant to erythromycin (FIGS. 25A and 25B, respectively).

In assay [6] the test system is Staphylococcus aureus susceptible (ATCC29213). Description: Microscopy-based AST (MIC) from liquid culture. The method, then: as §3, §4, §5
The test system is the same in assay [7]. Briefly: Broth microdilution method MIC. Particulars: S. aureus ATCC29213.
Assay [8] concerns Staphylococcus aureus resistant (ATCC43300). Description: Broth microdilution method MIC. The following applies: S. aureus ATCC43300.
Setting [9] is: 128 mg/L, 64 mg/L and 32 mg/L, 1 hour at 37° C.

≈ marks a conversion by molar mass, not a printed value.

With `CC1(C)S[C@@H]2[C@H](NC(=O)[C@H](N)c3ccccc3)C(=O)N2[C@H]1C(=O)O` [ampicillin, Ampicillin], the MIC in assay [1] was 4 µg/mL (≈ 11.4 µM); in assay [4], at least 128 µg/mL. The figures for the “bacterial growth after 1 hour incubation” value in assay [2] (setting [9]) and in assay [3] (setting [9]) were “showed growth” and “does not grow”, respectively. Also, the “filamentous or red bacteria after 1 hour incubation” value in assay [2] (all three tested concentrations (128, 64, 32 mg/L)) is reported as “without presence of filamentous bacteria or red bacteria”. In addition, in assay [3] (at 128 mg/L), the “red (Propidium Iodide, dead) bacteria after 1 hour incubation” value is “presence of red bacteria”. Moreover, the “bacterial morphology after 1 hour incubation” value in assay [3] (in the three concentrations tested (128, 64, 32 mg/L)) is on record as “filamentous form”.
On to `CC[C@H]1OC(=O)[C@H](C)[C@@H](O[C@H]2C[C@@](C)(OC)[C@@H](O)[C@H](C)O2)[C@H](C)[C@@H](O[C@@H]2O[C@H](C)C[C@H](N(C)C)[C@H]2O)[C@](C)(O)C[C@@H](C)C(=O)[C@H](C)[C@@H](O)[C@]1(C)O` [erythromycin, Erythromycin], for which the MIC was at least 4 µg/mL in assay [5] (Staphylococcus aureus, S. aureus ATCC43300, 2×10^4 CFU/mL, 5 hours at 37° C., highest concentration tested 4 mg/L); 0.25 µg/mL (≈ 0.341 µM) in assay [6] (Staphylococcus aureus, S. aureus ATCC29213, 2×10^4 CFU/mL, 5 hours at 37° C., image analysis); 0.25 to 0.5 µg/mL (≈ 0.341 to 0.681 µM) in assay [7]; at least 512 µg/mL in assay [8]. Also, the “bacterial growth after 5 hours incubation” value in assay [5] (at 4 mg/L and lower concentrations) is reported as “showed growth”; in assay [6] (at 0.125 mg/L), “showed growth”; in assay [6] (at a concentration ≥0.25 mg/L), “did not grow”.
